pIC50: −log10 of the molar value.

The target of the test is T1, human ACC2 (Homo sapiens, UniProt O00763).
T1 construct: made in house; host or cells: insect cells (baculoviral expression system)
T1 sequence (O00763 129-2458 limits assumed): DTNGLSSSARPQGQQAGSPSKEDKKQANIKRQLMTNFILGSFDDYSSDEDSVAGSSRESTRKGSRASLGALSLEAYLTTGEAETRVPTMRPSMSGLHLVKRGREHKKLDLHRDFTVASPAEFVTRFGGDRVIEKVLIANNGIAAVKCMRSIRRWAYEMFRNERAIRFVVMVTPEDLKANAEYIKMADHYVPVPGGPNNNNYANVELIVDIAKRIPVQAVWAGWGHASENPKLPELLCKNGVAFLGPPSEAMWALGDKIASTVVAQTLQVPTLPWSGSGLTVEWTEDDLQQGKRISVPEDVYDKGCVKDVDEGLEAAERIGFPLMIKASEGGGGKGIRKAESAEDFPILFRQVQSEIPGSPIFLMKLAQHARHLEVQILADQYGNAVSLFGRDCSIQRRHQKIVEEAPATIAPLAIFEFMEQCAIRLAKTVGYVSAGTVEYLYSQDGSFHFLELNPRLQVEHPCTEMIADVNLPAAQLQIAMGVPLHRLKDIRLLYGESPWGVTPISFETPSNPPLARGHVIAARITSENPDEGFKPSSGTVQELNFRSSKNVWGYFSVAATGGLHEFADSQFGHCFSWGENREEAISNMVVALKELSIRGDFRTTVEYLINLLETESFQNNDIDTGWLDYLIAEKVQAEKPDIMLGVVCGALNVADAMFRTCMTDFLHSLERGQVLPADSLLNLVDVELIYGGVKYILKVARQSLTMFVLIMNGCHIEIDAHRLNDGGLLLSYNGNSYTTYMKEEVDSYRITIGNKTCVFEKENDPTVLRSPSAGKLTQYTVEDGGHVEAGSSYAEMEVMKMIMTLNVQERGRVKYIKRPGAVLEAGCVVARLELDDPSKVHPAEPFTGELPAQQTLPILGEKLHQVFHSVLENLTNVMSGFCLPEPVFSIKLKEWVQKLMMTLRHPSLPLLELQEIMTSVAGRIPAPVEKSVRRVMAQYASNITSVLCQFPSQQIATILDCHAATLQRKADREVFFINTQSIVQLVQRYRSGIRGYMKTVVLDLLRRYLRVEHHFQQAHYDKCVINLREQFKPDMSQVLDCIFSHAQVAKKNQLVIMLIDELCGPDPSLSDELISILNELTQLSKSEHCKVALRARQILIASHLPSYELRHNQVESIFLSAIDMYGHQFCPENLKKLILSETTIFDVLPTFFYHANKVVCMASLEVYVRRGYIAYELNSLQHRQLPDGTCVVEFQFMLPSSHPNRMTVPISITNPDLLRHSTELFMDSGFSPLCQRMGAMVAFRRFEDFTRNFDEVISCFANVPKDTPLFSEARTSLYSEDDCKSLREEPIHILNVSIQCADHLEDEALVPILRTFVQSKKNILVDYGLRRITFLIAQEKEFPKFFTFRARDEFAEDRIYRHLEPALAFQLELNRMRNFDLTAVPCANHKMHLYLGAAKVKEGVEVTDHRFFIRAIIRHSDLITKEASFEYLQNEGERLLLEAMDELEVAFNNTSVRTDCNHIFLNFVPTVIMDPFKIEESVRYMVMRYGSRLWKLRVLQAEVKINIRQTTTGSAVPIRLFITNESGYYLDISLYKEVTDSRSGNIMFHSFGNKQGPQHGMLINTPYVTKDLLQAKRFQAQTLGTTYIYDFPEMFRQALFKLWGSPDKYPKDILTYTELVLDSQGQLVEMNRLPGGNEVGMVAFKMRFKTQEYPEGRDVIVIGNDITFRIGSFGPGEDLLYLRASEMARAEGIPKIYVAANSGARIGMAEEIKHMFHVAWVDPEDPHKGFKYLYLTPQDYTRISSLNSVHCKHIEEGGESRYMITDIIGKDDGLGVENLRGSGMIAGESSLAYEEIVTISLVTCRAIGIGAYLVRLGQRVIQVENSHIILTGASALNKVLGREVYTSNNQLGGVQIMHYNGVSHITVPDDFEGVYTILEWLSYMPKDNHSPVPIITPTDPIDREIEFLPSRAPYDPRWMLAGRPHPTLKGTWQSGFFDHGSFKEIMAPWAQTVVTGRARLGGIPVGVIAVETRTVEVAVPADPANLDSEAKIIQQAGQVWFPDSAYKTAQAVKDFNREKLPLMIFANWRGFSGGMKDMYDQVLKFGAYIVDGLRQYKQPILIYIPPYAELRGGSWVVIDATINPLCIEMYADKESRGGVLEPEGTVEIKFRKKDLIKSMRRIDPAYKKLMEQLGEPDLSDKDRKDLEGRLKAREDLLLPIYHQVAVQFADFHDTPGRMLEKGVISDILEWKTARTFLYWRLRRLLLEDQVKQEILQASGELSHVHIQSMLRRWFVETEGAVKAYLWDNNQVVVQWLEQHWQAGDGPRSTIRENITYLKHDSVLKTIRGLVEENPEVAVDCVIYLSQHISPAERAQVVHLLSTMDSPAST
As to the kind of experiment: ACC2 assay, spectrophotometric 384 well assay (NADH-linked, coupled lactate dehydrogenase/pyruvate kinase). It counts as biochemical. The following applies: ACC2 assay, hACC2 construct lacking 128 N-terminal amino acids, 25° C., 340 nm; read-out: IC50. An outline of the steps: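 ADP output tracked via pyruvate kinase/lactate dehydrogenase NADH oxidation, slope at 340 nm over 15 min, 25° C, with 500 μM ATP and 200 μM each acetyl-CoA and NADH. Enzyme: insect-cell-expressed human ACC2, N-terminal 128 residues deleted; pH 7.5 Tris with citrate, KHCO3. IC50 from four-parameter regression versus vehicle and no-acetyl-CoA controls.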
By pIC50 is commonly meant the IC50 on a negative log10 scale, so that one unit is a factor of ten. For the compound `CC(=O)N[C@@H](C)c1ccc(C2CCN(c3ncc(C(=O)N4Cc5cnn(C)c5C4)cn3)CC2)cc1` [Example 18.28], the pIC50 was 4.77. With `CC(=O)N[C@@H](C)c1ccc(C2CCN(c3noc4ccccc34)CC2)cc1` [Example 4.30] the figure was 5.96; with `COCCCOc1ccc(N2CCC(c3ccc([C@H](C)NC(C)=O)cc3)CC2)cc1` [Example 9.26], 6.66; with `CC(=O)N[C@@H](C)c1ccc(C2CCN(c3cc(NCc4ccccn4)ncn3)CC2)cc1` [Example 11.67], 4.58. As for `CCCN(C)c1cc(N2CCC(c3ccc([C@H](C)NC(C)=O)cc3)CC2)ncn1` [Example 11.68], the pIC50 was 6.21. In the case of `C[C@H](NC(=O)N(C)C)c1ccc(C2CCN(c3cc(OC4CCC4)ncn3)CC2)cc1` [Example 20.4] it was 6.72; in that of `CC(=O)N[C@@H](C)c1ccc(C2CCN(c3ccnc(OCC4CCOC4)c3)CC2)cc1` (stereo partly drawn) [Example 19.18], 6.47; in that of `CCOc1ccc(-c2cc(N3CCC(c4ccc([C@H](C)NC(C)=O)cc4)CC3)ncn2)cc1` [Example 22.9], 5.51.

Regarding `CC(=O)N[C@@H](C)c1ccc(C2CCN(c3cc(C(F)(F)F)ncn3)CC2)cc1` [Example 4.6], the pIC50 is 5.80.

`CC(=O)N[C@@H](C)c1ccc(C2CCN(c3ncc(-c4ccccc4C)cn3)CC2)cc1` [Example 10.8]: the pIC50 was 6.70.

Take `CC(=O)N[C@@H](C)c1ccc(C2CCN(c3ncc(OCC4CC4(F)F)cn3)CC2)cc1` (stereo partly drawn) [Example 4.53]: the pIC50 was 6.80. With `CCC(NC(C)=O)c1ccc(C2CCN(c3ccc4c(c3)OCCO4)CC2)cc1` (stereo not drawn) [Example 1.201] the figure was 5.34; with `CC(=O)N[C@@H](C)c1ccc(C2CCN(c3cc(NC(C)C)ncn3)CC2)cc1` [Example 11.44], 5.30; with `CCCOc1cc(N2CCC(c3ccc([C@H](C)NC(C)=O)cc3)CC2)ccn1` [Example 19.23], 6.92. With `CC(=O)N[C@@H](C)c1ccc(C2CCN(c3ncc(OCC4CC4)cn3)CC2)cc1` [Example 4.52] the figure was 6.28. Consider `C[C@H](NC(=O)N(C)C)c1ccc(C2CCN(c3ccc(OC4CCC4)cc3)CC2)cc1` [Example 1.21], for which the pIC50 was 7.10.

Consider `CCCOc1ccc(N2CCC(c3ccc([C@H](C)NC(=O)C4CC4)cc3)CC2)c(C#N)c1` [Example 1.115], for which the pIC50 is 6.96. For `CCCCOc1ccc(N2CCC(c3ccc([C@H](C)NC(C)=O)cc3)CC2)cc1` [Example 1.3], the pIC50 was 7.05. With `CCOc1ccc(N2CCC(c3ccc([C@H](C)NC(C)=O)cc3)CC2)cc1C` [Example 8.15] the figure was 6.08; with `CC(=O)N[C@@H](C)c1ccc(C2CCN(c3ncc(-c4ccc(C)cc4)cc3F)CC2)cc1` [Example 10.315], 6.92; with `CCC(NC(C)=O)c1ccc(C2CCN(c3ccnc(Oc4ccccc4)c3)CC2)cc1` (stereo not drawn) [Example 15.19], 5.41. Regarding `CCOc1ccc(N2CCC(c3ccc([C@H](C)NC(=O)Nc4ccon4)cc3)CC2)cc1` [Example 14.70], the pIC50 is 6.10. Turning to `CC(=O)N[C@@H](C)c1ccc(C2CCN(c3ncc(C(=O)N(C)c4ccc(C)cc4)cn3)CC2)cc1` [Example 18.4], the pIC50 is 5.74. For `CC(=O)N[C@@H](C)c1ccc(C2CCN(c3ccnc(O[C@H]4CCOC4)n3)CC2)cc1` [Example 11.18], the pIC50 is 5.21. `CC(=O)N[C@@H](C)c1ccc(C2CCN(c3ncc(C(=O)NCc4cocn4)cn3)CC2)cc1` [Example 18.29]: the pIC50 is 5.19. As to `CCCCOc1ccc(N2CCC(c3ccc([C@H](C)NC(C)=O)cc3)CC2)nn1` [Example 3.13], the pIC50 was 6.33.

As to `CC(=O)N[C@@H](C)c1ccc(C2CCN(c3ccnc(NCCC4CC4)n3)CC2)cc1` [Example 11.106], the pIC50 is 5.80.

For the compound `CCCOc1ccc(N2CCC(c3ccc([C@H](C)NC(=O)C4CC4)cc3)CC2)nc1` [Example 5.57], the pIC50 is 6.64. Turning to `CCCOc1ccc(N2CCC(c3ccc(C(CC)NC(C)=O)cc3)CC2)cc1` (stereo not drawn) [Example 1.200], the pIC50 was 6.35.

Take `CC(=O)N[C@@H](C)c1ccc(C2CCN(c3cccc(OC4CCCOC4)c3)CC2)cc1` (stereo partly drawn) [Example 9.3]: the pIC50 is 5.85.

Consider `CC(=O)N[C@@H](C)c1ccc(C2CCN(c3ccc4oc(-c5ccccc5)nc4c3)CC2)cc1` [Example 1.71], for which the pIC50 was 7.10.

On to `CC(=O)N[C@@H](C)c1ccc(C2CCN(c3ncc(C(=O)Nc4cc(C)on4)cn3)CC2)cc1` [Example 18.78], for which the pIC50 was 4.90.

As to `CC(=O)N[C@@H](C)c1ccc(C2CCN(c3ccc(Cl)c(C)c3)CC2)cc1` [Example 1.156], the pIC50 is 6.22.

`CCCOc1ccc(N2CCC(c3ccc([C@H](C)NC(C)=O)cc3)CC2)c(Cl)c1` [Example 1.33]: the pIC50 was 6.92. For the compound `CC(=O)N[C@@H](C)c1ccc(C2CCN(c3nc(C)c4ccccc4n3)CC2)cc1` [Example 4.23], the pIC50 is 6.14. In the case of `CC(=O)N[C@@H](C)c1ccc(C2CCN(c3ccnc(OCc4ccon4)c3)CC2)cc1` [Example 19.29] it was 6.04; in that of `CCCC(C)Oc1ccc(N2CCC(c3ccc([C@H](C)NC(C)=O)cc3)CC2)cc1C` (stereo partly drawn) [Example 8.56], 6.00; in that of `CCCCOc1cc(N2CCC(c3ccc([C@H](C)NC(C)=O)cc3)CC2)ccn1` [Example 3.4], 6.96.

For the compound `CC(=O)N[C@@H](C)c1ccc(C2CCN(c3ncc(-c4ccc(F)cc4)cc3F)CC2)cc1` [Example 10.311], the pIC50 is 6.74. In the case of `CC(=O)N[C@@H](C)c1ccc(C2CCN(c3cc(N4Cc5ccccc5C4)ncn3)CC2)cc1` [Example 11.89] it was 6.12; in that of `C[C@H](NC(=O)C1CC1)c1ccc(C2CCN(c3ccc(OC4CC4)cc3)CC2)cc1` [Example 1.14], 7.00. In the case of `CCOc1ccc(N2CCC(c3ccc(CC(C)NC(C)=O)cc3)CC2)c(C#N)c1` (stereo not drawn) [Example 2.11] it was 5.89. In the case of `CC(=O)N[C@@H](C)c1ccc(C2CCN(c3ccnc(NC4CCC4)n3)CC2)cc1` [Example 11.45] it was 5.82; in that of `CCOc1ccc(N2CCC(c3ccc([C@H](C)NC(C)=O)cc3)CC2)cc1C#N` [Example 8.16], 5.25; in that of `CC(=O)N[C@@H](C)c1ccc(C2CCN(c3ccc(C(C)C)cn3)CC2)cc1` [Example 4.13], 5.49.

`CCOc1ccc(N2CCC(c3ccc([C@H](C)NC(=O)Cc4ccccc4)cc3)CC2)cc1` [Example 6.21]: the pIC50 was 5.80. Turning to `CCOc1ccc(N2CCC(c3ccc([C@H](C)NC(=O)C4(C#N)CC4)cc3)CC2)cc1` [Example 6.20], the pIC50 was 6.17. In the case of `CCCCNc1nccc(N2CCC(c3ccc([C@H](C)NC(C)=O)cc3)CC2)n1` [Example 11.63] it was 5.70; in that of `C[C@H](NC(=O)C1CC1)c1ccc(C2CCN(c3cc(OC4CCC4)ncn3)CC2)cc1` [Example 20.2], 6.66. For the compound `CCOc1ccc(N2CCC(c3ccc([C@H](C)NC(=O)N4CCCC4)cc3)CC2)cc1` [Example 14.68], the pIC50 was 5.11. With `CC(=O)N[C@@H](C)c1ccc(C2CCN(c3ccc(OCC4CC4)c(C#N)c3)CC2)cc1` [Example 9.40] the figure was 5.54; with `CC(=O)N[C@@H](C)c1ccc(C2CCN(c3ccnc(OC(C)C)n3)CC2)cc1` [Example 11.38], 6.25; with `CC(=O)N[C@@H](C)c1ccc(C2CCN(c3ncc(-c4cnccc4C)cn3)CC2)cc1` [Example 10.95], 5.70. `CCOc1ccc(N2CCC(c3ccc([C@H](C)NC(=O)C(F)(F)F)cc3)CC2)cc1` [Example 40.2]: the pIC50 was 7.10. With `COCCOc1cc(N2CCC(c3ccc([C@H](C)NC(C)=O)cc3)CC2)ncn1` [Example 11.29], the pIC50 was 5.42. Consider `CCOc1ccc(N2CCC(c3ccc([C@H](C)NC(=O)N(C)C)cc3)CC2)nc1` [Example 1.179], for which the pIC50 was 6.51. Take `CCOc1ccc(N2CCC(c3ccc([C@H](C)NC(=O)CN(C)C)cc3)CC2)cc1` [Example 36.1, (S)-2-(Dimethylamino)-N-(1-{4-[1-(4-ethoxyphenyl)piperidin-4-yl]phenyl}ethyl)acetamide]: the pIC50 was 5.80. `CC(=O)N[C@@H](C)c1ccc(C2CCN(c3ccccc3)CC2)cc1` [Example 1.45]: the pIC50 was 6.43. With `CC(=O)N[C@@H](C)c1ccc(C2CCN(c3ncc(-c4cccc5c4OCC5)cn3)CC2)cc1` [Example 10.92] the figure was 6.43; with `CC(=O)N[C@@H](C)c1ccc(C2CCN(c3ccc4c(Cl)cccc4n3)CC2)cc1` [Example 5.32], 5.42. As for `CCOc1ccc(N2CCC(c3ccc([C@H](C)NC(=O)CC(=O)O)cc3)CC2)cc1` [Example 32.1, (S)-3-(1-(4-(1-(4-Ethoxyphenyl)piperidin-4-yl)phenyl)ethylamino)-3-oxopropanoic Acid], the pIC50 is 5.14.

Turning to `COc1nc(OCC2CC2)ncc1N1CCC(c2ccc([C@H](C)NC(C)=O)cc2)CC1` [Example 16.11], the pIC50 is 5.89. `CCOc1ccc(N2CCC(c3ccc([C@H](C)NC(=O)CN)cc3)CC2)cc1` [Example 35.1, (S)-2-Amino-N-(1-{4-[1-(4-ethoxyphenyl)piperidin-4-yl]phenyl}ethyl)acetamide]: the pIC50 was 5.27. With `CCC(NC(C)=O)c1ccc(C2CCN(c3ccc(OCC4CC4)cc3)CC2)cc1` (stereo not drawn) [Example 1.203], the pIC50 is 6.21. Regarding `CC(=O)N[C@@H](C)c1ccc(C2CCN(c3ccc(OCC4CCC4)c(F)c3)CC2)cc1` [Example 9.42], the pIC50 was 6.80. In the case of `CC(=O)N[C@@H](C)c1ccc(C2CCN(c3ncc4c(C)n[nH]c4n3)CC2)cc1` [Example 4.20] it was 5.89.

For the origin of these results see patent US9006450B2 (Boehringer Ingelheim International GmbH, priority 2010, dated 2015).
